In US9303076B2, “Cell-penetrating peptides and uses thereof” (Hoffmann-La Roche Inc., priority 2010, dated 2016):
“Also recorded” adds a separate entry of the source.

Tests used:
siRNA duplex = experiment: gel-shift assay of peptide/siRNA complex formation; type: binding; details: ethidium bromide staining
Experimental: Gel-shift assays were performed by mixing […] siRNA duplex with the respective peptides in a given molar ratio in water. The complexes were formed for 1 hour at 37° C. and analyzed on a 2.5% agarose gel with ethidium bromide (run: 40 minutes at 125 V). For proteinase K treatment, 1 μl proteinase K was added to a standard reaction as indicated above.
Mechanisms that may explain transfection functionalities of charged peptides such as TAT or protamine include the formation of complexes between positively charged peptides and negatively charged nucleic acids. Such complexes enable peptide-mediated membrane-interacting and/or endosome escape functionalities to transfer the complexed nucleic acids into the cytosol of cells (Law, M. et al. (2008) Biotechnol. Prog. 24, 957-963) In order to address whether the above mechanism may apply to the NTRN-derived peptide as well gel-shift assays were performed (cf. FIG. 8). To this end, siRNA was co-incubated with increasing concentrations of peptide, followed by analyses of their migration pattern via gel electrophoresis.

MCF7 cells [1] = experiment: FACS analysis of internalization of FITC-labeled peptides; type: cell-based, human
Experimental: For FACS analysis, MCF7 cells (ATCC number HTB-22) were detached by 15 min incubation in accutase (an enzyme solution having proteolytic and collagenolytic activities; commercially available from various suppliers). After washing in FACS buffer (PBS containing 5% FCS), the cells were seeded in a 96 well, rounded bottom multi-well plate (Cat. No. 3799, Corning Inc., Corning, N.Y. USA) in a final density of 3×10^5 cells/ml and used immediately. The cells were incubated in the respective presence of 1 μM, 5 μM and 10 μM FITC-labeled peptides in OptiMEM medium for 3 hours at 37° C. Afterwards, the cells were washed in FACS buffer and incubated in proteinase K (0.02 mg/ml) containing buffer for 30 minutes at 37° C. The cells were washed twice and analyzed with the FACSCanto II (BD Biosciences; San Jose, Calif., USA) using the FITC channel.
For determining the internalization behavior of the CPPs identified in the screening procedures FITC-labeled derivates of said peptides (at 1 μM, 5 μM, and 10 μM, respectively) were analyzed by means of FACS. The following peptides were used: NRTN as a transfecting peptide, WNT16 as a non-transfecting peptide, FALL as a toxic peptide and TAT as a reference (positive control) (cf. FIG. 12). MCF7 cells were incubated in the presence of the fluorescent peptide derivatives for 3 hours at 37° C. in OptiMEM. Subsequently, the cells were treated with proteinase K for 30 minutes at 37° C. to remove surface bound peptides, and thus to ensure the monitoring only of internalized peptides. The cells were then washed in PBS and analyzed by FACS.

[2] = tested on: hCMEC/D3 brain endothelial cells; experiment: uptake into brain endothelial cells (blood-brain-barrier cell culture model); type: cell-based; details: FITC-conjugated peptide (N- and C-terminal), 5 μM, 1 h, 37° C.; hCMEC/D3 or primary human brain endothelial cells
Experimental: Fluorescein isothiocyanate (FITC)-conjugated NRTN peptides (N-terminal and C-terminal conjugation, respectively) were incubated with hCMEC/D3 brain endothelial cells at 5 μM for 1 h at 37° C. Subsequently, the cells were washed and fixed. Images were taken using a fluorescence microscope.
In order to evaluate potential interactions of the NRTN-derived peptide with endothelial cells forming the blood-brain-barrier, hCMEC/D3 cells or primary human brain endothelial cells were exposed to the NRTN-derived peptide in a blood-brain-barrier (BBB) model (Weksler, B. B. et al. (2005) FASEB J. 19, 1872-1874; Poller, B. et al. (2008) J. Neurochem. 107, 1358-1363). […] Thus, the NRTN-derived peptide localizes to a compartment that is important for BBB functionality (that is, for mediating and controlling transport across the BBB).

MCF7 cells [3] = experiment: growth inhibition/toxicity (CellTiter-Glo viability, GAPDH mRNA levels)
Experimental: MCF7 cells were seeded at a density of 15.000 cells per well in 96 well plates. The cells were incubated for 24 hours at 37° C., 5% CO2 and 85% humidity in RPMI 1640 medium supplemented with 10% FCS (fetal calf serum) and L-glutamine. For functional assays, the cells were washed in OptiMEM medium and RPMI 1640 was replaced with OptiMEM (all reagents were purchased from Invitrogen Corporation, Carlsbad, Calif., USA). Complexes of siRNAs and peptides were formed by incubation of 100 nM siRNA with the indicated peptide concentrations in OptiMEM for 30 minutes at room temperature. The complexes were added to the cells and incubated for 3 hours. Subsequently, OptiMEM was replaced with normal RPMI 1640 growth medium. The cells were incubated for further 21 hours for generating bDNA lysates, and for further 45 hours for performing CellTiter-Glo or CytoTox-Glo assays (cf. below).
In order to measure the number of living cells the CellTiter-Glo Luminescent Cell Viability Assay (Promega Corporation, Madison, Wis., USA) was used according to the protocol of the manufacturer. The cells were incubated for 48 hours in the presence of peptides and siRNAs. Subsequently, the cells are lysed, and a luminescent signal proportional to the amount of ATP present is generated which, in turn, is proportional to the number of living cells present. Luminescence was analyzed in an InfiniteF200 luminescence reader.
Based on this observation, GAPDH mRNA levels were used as a general readout for toxicity: an average measurement of 100% GAPDH mRNA relative to the medium control was considered as non-toxic, values between 99% and 70% as moderate toxic, and values of less than 70% as toxic (cf. FIG. 3).
Similarly, peptides resulting in GAPDH mRNA values >70% were classified as “nontoxic”, whereas peptides that caused a reduction of GAPDH mRNA to lesser values were termed “toxic”.

GAAEAAARVYDLGLRRLRQRRRLRRERVRA (NRTN peptide sequence; listed as Homo sapiens)
complex formation with siRNA (siRNA duplex): able to form stable complexes with siRNA
internalization into cells (FACS, FITC channel) (MCF7 cells [1]; FITC-labeled peptide 1, 5, 10 μM, 3 hours at 37° C., proteinase K treated): internalized into MCF7 cells
change of internalization with concentration (MCF7 cells [1]; increasing the concentration from 5 μM to 10 μM): strong increase in internalization
uptake / localization in brain endothelial cells [2]: accumulates (i.e. internalizes) under these assay conditions in endosomal structures; also recorded: localizes to intracellular endosomal structures
interference with cell viability at doses effective for Eg5 knockdown (MCF7 cells [3]; <10 μM): does not interfere with cell viability
cell viability / growth inhibition / toxicity (CellTiter-Glo, GAPDH mRNA levels) (MCF7 cells [3]; MCF7 cells, peptide 1 μM to 20 μM): only minor effects on cell viability
